Converted amounts (≈) assume the structure as drawn.
Columns and labels:
yeast cells [1] = experiment: Reversal assay: amino acids/metabolites reversing the antifungal activity at MIC level; type: cell-based, Saccharomyces cerevisiae
Method: Performing reversal assay: The reversal assay according to the embodiments herein is performed by the following steps in general: First the yeast strain is grown in presence of minimum inhibitory concentrations of the compounds to be tested. Then different concentrations of amino acids or metabolite intermediates are added to reverse the inhibitory effect of the test compounds. Then again the growth is checked and the minimum concentration of the metabolite or amino acids required for reversing the inhibitory effect is determined.
An experiment was designed for finding the metabolite that reverses the antifungal activity of the test compound.
With respect to FIG. 3, a cell suspension containing 1.5×10^5 yeast/ml was prepared in RPMI medium (1.2×) enriched by 2% glucose. […] 80 μl of this suspension was added to each well of a 96 well micro plate in the second row. Subsequently, two fold dilutions of reversing metabolite were prepared in the first row of the same microplate and 20 μl of each dilution was added to the related well of the second row. The plate was incubated at 30° C. overnight. Following an overnight incubation, the plate was checked for any visible growth of the strain. In case of any growth, the reversing metabolite was considered for further analysis.
In this test, all the amino acids, nucleic acids and intermediate metabolites of citric acid cycle were tested separately.
For all the compounds the mixture of mediators was evaluated. After observing that the compound was reversed, each of the mediating materials was tested separately. Reversal assay test has been done for all of the amino acids like glycine, alanine, leucine, isoleucine and valine.
Row G indicates a compound B in the absence of amino acids and cells. Row H is control cell.

ILV5 = experiment: Semi-quantitative RT-PCR expression analysis of ilv5; type: cell-based, Saccharomyces cerevisiae BY4741; settings: sub-lethal dose, 4 hours treatment; actin loading control
Method: (§1) A semi quantitative RT-PCR analysis was used to investigate any possible effect of new antifungal compounds on the expression level of candidate gene targets.
(§2) The RNA samples were prepared by using a commercial kit i.e. RNA easy mini kit, QIAGEN, Germany. A beads cell disrupter i.e. Micro Smash™, Tomy, Japan was used during the cell lysis process. All RNA preparation steps were performed according to the manufacturer's instructions.
(§3) 1 microgram of total RNA was used in cDNA synthesis reaction. A commercial kit i.e. first strand cDNA Synthesis Kit, Fermentas, USA was used for cDNA synthesis. Total cDNA was prepared using random hexamer primer and all steps were according to the manufacturer's instructions. A typical reaction was performed as table 1 below.
(§4) RT-PCR analysis was carried out to examine the effect of new antifungal compounds on the expression level of genes involved in aliphatic amino acids biosynthesis. Three genes, ilv2, ilv3 and ilv5 were chosen for further analysis. RNA samples were isolated from the yeast cells exposed to sub-lethal or sub-inhibitory concentrations of new antifungal compounds and following a cDNA preparation. RT-PCR was performed using the gene specific primers.
(§5) RT-PCR products were visualized by electrophoresis on agarose gel and staining by ethidium bromide.
(§6) An overnight culture of yeast Saccharomyces cerevisiae BY4741 was prepared. […]

ILV3 = experiment: Semi-quantitative RT-PCR expression analysis of ilv3; type: cell-based, Saccharomyces cerevisiae BY4741; settings: sub-lethal dose, 4 hours treatment; actin loading control
Method: as §1, §2, §3, §4, §5, §6

ILV2 = experiment: Semi-quantitative RT-PCR expression analysis of ilv2; type: cell-based, Saccharomyces cerevisiae BY4741; settings: sub-lethal dose, 4 hours treatment; actin loading control
Method: as §1, §2, §3, §4, §5, §6

yeast cells [2] = experiment: Minimum Inhibitory Concentration (MIC) by micro serial dilution in 96 well plate; type: cell-based; settings: Saccharomyces cerevisiae, 48 hours incubation
Method: Two fold serial dilutions of the compounds to be tested according to the embodiments herein were prepared in 96 well plates. 40 μl of appropriate test compound dilution was added to 160 μl of culture medium and the plate was incubated at 30° C. The culture medium is Yeast Peptone Dextrose agar (YPD) containing 10^3 yeast cells. The growth of yeast cells was monitored for 24 hr and 48 hr. Fluorouracil was used as a positive control and Dimethyl sulfoxide (DMSO-control solvent) was used as negative control. The minimum concentration of the test compound A which inhibits the fungal growth was defined as MIC. MIC level is defined as the minimum concentration of the compound which prevents the growth of pathogen. […]
After providing a serial dilution in the second row, 20 μl of the wells of the second row was transformed to the wells of first row and final volume of the wells of first row was changed to 100 μl. Finally, a surrounding part of each plate was covered with parafilm and was incubated under 37 degree of centigrade. the results were read out After 24 hours and 48 hours. […]
As a result of the growth of the fungus the medium is becoming cloudy. […] For defining the MIC, as well as the sample, positive control i.e. an approved antifungal drug like fluorouracil were measured. A solution control and a negative control i.e. only the fungal suspension were measured. […]

| SMILES | reversal property of the antifungal activity (yeast cells [1]) | Minimum Reversal Concentration (MRC), isoleucine (yeast cells [1]; isoleucine added 0-200 μg/ml, compound at constant MIC level) [µg/mL] | Minimum Reversal Concentration (MRC), leucine (yeast cells [1]; leucine added 0-200 μg/ml, compound at constant MIC level) [µg/mL] | Minimum Reversal Concentration (MRC), valine (yeast cells [1]; valine added 0-200 μg/ml, compound at constant MIC level) [µg/mL] | Expression level of ilv5, treated vs untreated cells (ILV5) | Expression level of ilv3, treated vs untreated cells (ILV3) | Expression level of ilv2, treated vs untreated cells (ILV2) | MIC (yeast cells [2]) [mg/L] |
| --- | --- | --- | --- | --- | --- | --- | --- | --- |
| C#CC(=O)Oc1ccc2ccc(=O)oc2c1 [compound A, 2-oxo-2H-chromen-7-yl propiolate] | lacks the reversal property | – | – | – | – | – | – | – |
| CCOC(=O)C#C/C=C/C(=O)OCC [compound B, diethyl-hex-2-en-4-yne-dioate] | – | 25 | 12.5 | 12.5 | higher than that in the untreated cells | unchanged | unchanged | 1.5 (≈ 7.65 µM) |

Source: patent US8569361B1, “Aliphatic amino acid biosynthesis inhibitors and a method of synthesizing the same” (priority 2012, dated 2013)
